Test results: ChEMBL document CHEMBL5465560, “Selectivity Literature for EUbOPEN Chemogenomic Library” (2024)
Values belong to the compound of their own block, whether it stands above or below them.

Key:
[1] = target: Cell division cycle 7-related protein kinase (Homo sapiens, UniProt O00311); test: Selectivity interaction (LanthaScreen Eu Kinase Binding Assay) EUB0001632a CDC7; conditions: at 10 µM
[2] = target: T1, Mitogen-activated protein kinase kinase kinase 6 (Homo sapiens) (UniProt O95382); test: Selectivity interaction (KinomeScan (DiscoverX)) EUB0000607a MAP3K6; conditions: at 10 µM
T1 sequence (whole entry): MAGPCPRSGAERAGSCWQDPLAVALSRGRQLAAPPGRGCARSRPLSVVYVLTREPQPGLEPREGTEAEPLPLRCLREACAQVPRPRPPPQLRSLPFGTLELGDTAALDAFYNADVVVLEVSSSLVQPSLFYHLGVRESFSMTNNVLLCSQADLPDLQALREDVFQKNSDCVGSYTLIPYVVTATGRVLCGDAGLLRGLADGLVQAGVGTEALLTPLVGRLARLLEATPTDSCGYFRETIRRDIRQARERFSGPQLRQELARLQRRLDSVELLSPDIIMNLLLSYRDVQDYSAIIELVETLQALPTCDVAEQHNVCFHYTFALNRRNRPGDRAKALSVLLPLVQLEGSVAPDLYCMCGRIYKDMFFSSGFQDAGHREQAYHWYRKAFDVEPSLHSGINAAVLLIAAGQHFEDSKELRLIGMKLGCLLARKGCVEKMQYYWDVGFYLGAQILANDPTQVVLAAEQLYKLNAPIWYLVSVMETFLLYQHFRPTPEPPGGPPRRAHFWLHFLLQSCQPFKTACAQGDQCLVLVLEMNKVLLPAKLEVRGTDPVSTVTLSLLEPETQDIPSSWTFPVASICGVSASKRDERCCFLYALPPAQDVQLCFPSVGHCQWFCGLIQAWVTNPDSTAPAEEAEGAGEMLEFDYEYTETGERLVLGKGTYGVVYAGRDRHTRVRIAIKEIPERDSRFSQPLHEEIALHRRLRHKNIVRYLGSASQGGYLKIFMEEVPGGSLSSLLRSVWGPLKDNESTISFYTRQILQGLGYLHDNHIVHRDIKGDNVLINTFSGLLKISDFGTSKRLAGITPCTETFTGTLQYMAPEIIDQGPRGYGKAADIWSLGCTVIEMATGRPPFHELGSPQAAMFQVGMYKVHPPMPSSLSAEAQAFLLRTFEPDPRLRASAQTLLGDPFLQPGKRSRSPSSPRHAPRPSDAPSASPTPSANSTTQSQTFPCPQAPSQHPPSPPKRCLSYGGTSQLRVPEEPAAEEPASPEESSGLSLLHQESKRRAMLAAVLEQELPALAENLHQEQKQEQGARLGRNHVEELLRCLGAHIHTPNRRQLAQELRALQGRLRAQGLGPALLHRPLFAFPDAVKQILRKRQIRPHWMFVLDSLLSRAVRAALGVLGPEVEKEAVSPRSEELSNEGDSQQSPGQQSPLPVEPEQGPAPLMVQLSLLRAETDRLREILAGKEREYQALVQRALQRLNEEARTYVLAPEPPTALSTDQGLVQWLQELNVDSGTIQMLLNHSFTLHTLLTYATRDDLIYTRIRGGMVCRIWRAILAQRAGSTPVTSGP

[3] = target: T2, Aurora kinase A (Homo sapiens) (UniProt O14965); test: Selectivity interaction (ActivX KiNativ screen (kinase selectivity in THP-1 cell lysates)) EUB0000639a STK6; format: subcellular; conditions: lysate, at 5 µM
T2 sequence (whole entry): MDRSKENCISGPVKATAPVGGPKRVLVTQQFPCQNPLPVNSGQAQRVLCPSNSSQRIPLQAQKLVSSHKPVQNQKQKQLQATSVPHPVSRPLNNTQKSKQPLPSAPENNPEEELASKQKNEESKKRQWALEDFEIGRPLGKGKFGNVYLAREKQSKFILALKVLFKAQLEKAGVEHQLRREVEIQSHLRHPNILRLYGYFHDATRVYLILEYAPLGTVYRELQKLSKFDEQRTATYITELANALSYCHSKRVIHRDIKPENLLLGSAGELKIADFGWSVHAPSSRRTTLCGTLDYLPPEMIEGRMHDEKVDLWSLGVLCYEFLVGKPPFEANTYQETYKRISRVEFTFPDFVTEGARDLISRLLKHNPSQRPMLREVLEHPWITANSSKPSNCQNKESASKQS

[4] = target: T3, Homeodomain-interacting protein kinase 4 (Homo sapiens) (UniProt Q8NE63); test: Selectivity interaction (Kinase panel (Invitrogen)) EUB0000639a HIPK4; conditions: at 200 nM
T3 sequence (whole entry): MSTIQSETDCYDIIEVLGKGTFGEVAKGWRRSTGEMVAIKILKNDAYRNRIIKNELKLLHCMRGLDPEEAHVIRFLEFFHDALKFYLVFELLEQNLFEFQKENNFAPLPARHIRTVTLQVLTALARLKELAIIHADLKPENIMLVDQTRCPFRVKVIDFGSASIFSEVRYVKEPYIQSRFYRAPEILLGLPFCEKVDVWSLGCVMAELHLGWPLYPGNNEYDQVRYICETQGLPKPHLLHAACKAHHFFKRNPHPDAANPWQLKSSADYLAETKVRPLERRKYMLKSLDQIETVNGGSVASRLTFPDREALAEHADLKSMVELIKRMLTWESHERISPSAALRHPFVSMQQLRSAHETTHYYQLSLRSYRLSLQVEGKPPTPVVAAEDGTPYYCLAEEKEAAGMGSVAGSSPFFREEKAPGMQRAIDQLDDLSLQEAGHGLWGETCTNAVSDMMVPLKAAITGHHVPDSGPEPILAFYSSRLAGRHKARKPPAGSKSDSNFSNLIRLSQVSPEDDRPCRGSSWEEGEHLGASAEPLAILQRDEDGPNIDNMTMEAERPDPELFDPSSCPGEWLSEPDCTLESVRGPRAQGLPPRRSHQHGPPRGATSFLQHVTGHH

[5] = target: Calcium/calmodulin-dependent protein kinase type 1 (Homo sapiens) (UniProt Q14012); test: Selectivity interaction (ActivX KiNativ screen (kinase selectivity in THP-1 cell lysates)) EUB0000639a CAMK1; format: subcellular; conditions: lysate, at 0.01 µM
Chain of Calcium/calmodulin-dependent protein kinase type 1 (Homo sapiens) (Q14012 whole entry, looked up): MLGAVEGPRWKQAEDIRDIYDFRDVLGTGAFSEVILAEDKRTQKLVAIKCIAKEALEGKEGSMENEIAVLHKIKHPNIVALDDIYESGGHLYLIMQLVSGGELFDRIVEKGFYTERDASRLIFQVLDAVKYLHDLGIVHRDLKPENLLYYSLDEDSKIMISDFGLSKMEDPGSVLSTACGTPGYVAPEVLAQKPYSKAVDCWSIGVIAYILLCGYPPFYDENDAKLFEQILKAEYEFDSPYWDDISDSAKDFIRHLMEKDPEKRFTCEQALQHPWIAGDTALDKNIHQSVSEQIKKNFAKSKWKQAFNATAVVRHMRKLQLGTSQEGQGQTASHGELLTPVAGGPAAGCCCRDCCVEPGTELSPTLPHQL

[6] = target: Tyrosine-protein kinase FRK (Homo sapiens) (UniProt P42685); test: Selectivity interaction (Ambit KINOMEscan and KiNATiv profiling in Jurkat cells) EUB0000090b FRK; format: cell-based; conditions: at 1 µM
Chain of Tyrosine-protein kinase FRK (Homo sapiens) (P42685 whole entry): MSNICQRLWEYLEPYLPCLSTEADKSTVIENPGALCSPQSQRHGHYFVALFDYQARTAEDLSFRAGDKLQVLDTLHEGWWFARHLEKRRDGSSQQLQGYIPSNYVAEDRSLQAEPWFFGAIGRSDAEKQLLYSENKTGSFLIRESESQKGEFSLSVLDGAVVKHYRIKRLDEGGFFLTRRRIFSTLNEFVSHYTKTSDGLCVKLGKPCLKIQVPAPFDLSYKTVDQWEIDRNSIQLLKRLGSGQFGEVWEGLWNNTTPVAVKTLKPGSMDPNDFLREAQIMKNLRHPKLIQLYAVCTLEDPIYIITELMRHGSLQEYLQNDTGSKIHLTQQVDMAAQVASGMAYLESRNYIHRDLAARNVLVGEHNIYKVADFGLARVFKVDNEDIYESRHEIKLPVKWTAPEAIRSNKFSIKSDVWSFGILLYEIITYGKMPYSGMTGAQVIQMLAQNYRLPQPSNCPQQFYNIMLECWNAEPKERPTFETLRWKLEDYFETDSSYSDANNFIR

[7] = target: T4, Mitogen-activated protein kinase 12 (Homo sapiens) (UniProt P53778); conditions: at 10 µM
T4 sequence (whole entry): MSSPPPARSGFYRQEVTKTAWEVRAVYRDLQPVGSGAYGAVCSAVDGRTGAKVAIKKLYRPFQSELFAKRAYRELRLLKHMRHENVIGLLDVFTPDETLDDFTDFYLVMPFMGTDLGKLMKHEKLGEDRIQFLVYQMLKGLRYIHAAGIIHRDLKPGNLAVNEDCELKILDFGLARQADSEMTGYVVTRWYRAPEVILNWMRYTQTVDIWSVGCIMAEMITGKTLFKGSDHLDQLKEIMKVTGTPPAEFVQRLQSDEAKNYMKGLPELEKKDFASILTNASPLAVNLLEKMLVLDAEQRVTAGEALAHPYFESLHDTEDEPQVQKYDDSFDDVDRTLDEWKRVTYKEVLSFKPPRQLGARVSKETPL

Chain of Cell division cycle 7-related protein kinase (O00311 whole entry, looked up): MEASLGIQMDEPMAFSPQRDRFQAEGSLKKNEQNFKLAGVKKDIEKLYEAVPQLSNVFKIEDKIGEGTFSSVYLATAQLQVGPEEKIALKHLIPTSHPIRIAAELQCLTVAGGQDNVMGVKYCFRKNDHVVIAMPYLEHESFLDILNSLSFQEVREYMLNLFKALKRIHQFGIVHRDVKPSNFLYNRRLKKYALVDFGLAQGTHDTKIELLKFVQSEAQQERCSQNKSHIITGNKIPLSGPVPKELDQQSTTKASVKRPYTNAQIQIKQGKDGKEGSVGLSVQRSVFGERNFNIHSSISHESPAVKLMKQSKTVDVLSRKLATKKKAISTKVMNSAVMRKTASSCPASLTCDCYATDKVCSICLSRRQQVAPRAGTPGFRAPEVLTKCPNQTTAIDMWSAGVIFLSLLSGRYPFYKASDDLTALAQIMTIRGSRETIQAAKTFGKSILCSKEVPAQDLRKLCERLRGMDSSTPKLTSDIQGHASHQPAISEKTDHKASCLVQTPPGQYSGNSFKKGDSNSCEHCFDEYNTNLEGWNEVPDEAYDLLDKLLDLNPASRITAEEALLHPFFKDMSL

% of inhibition [1]: -5.05%
SMILES: Cn1cc(-n2cnc3c(NCc4nc5cc(Cl)c(Cl)cc5[nH]4)nc(N4CCOCC4)nc32)cn1

SMILES: CNC(=O)Nc1ccc(-c2nc(N3CC4CCC(C3)O4)c3cnn(C4CCC5(CC4)OCCO5)c3n2)cc1
% of control [2]: 80%

% of inhibition [3]: 57.8%
% of inhibition [4]: 5.27%
% of inhibition [5]: 2.7%
SMILES: CC[C@@H]1[C@H](F)C(=O)N[C@@H]1COc1nccc2cc(C(N)=O)c(OC)cc12 [ZIMLOVISERTIB]

SMILES: CN(C)C/C=C/C(=O)Nc1ccc(C(=O)N2CCCC(Nc3ncc(Cl)c(-c4c[nH]c5ccccc45)n3)C2)cc1 (configuration not stated)
% of control [6]: 89%

SMILES: Cc1cc([C@@H](C)Nc2ccccc2C(=O)O)c2nc(N3CCOCC3)cc(=O)n2c1 [AZD-6482]
% of control [7]: 94%
